According to ChEMBL document CHEMBL1765052, “Developing potent human uric acid transporter 1 (hURAT1) inhibitors” (J Med Chem, 2011):

Legend:
[1] = target: T1, Solute carrier family 22 member 12 (Homo sapiens, UniProt Q96S37); experiment: Inhibition of human URAT1 expressed in xenopus oocyte assessed as inhibition of [14C]-labelled urate uptake at 50 uM after 60 mins by liquid scintillation counting; conditions: 1 h
T1 sequence (Q96S37 whole entry): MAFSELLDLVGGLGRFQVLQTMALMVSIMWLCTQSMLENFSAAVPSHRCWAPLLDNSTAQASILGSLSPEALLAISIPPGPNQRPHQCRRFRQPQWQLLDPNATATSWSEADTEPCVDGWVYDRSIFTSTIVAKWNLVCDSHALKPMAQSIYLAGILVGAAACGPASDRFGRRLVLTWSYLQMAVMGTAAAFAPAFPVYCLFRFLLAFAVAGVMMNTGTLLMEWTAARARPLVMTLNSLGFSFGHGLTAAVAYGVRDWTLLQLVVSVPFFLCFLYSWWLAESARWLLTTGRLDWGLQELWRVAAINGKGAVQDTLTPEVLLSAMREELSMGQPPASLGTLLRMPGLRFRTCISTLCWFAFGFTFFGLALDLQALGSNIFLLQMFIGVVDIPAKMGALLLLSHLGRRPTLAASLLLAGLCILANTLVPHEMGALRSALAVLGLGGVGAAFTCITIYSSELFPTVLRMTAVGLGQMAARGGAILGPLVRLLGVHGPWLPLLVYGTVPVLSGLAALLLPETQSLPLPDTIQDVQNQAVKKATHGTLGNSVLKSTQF

[2] = target: T1, Solute carrier family 22 member 12; experiment: Inhibition of human URAT1 expressed in xenopus oocyte assessed as inhibition of [14C]-labelled urate uptake after 60 mins by liquid scintillation counting

## CCc1oc2c(Br)c(O)c(Br)cc2c1C(=O)c1ccc(OC)cc1
[1]
  inhibition at 50 µM: 99.8%
[2]
  IC50: 667 nM

## CCc1oc2ccccc2c1C(=O)c1ccc(OC)cc1
[1]
  inhibition at 50 µM: 13.3%

## CCc1cc2c(C(=O)c3ccc(OC)cc3)cc(OC)cc2o1
[1]
  inhibition at 50 µM: 1.5%

## CCc1oc2cc(OC)ccc2c1C(=O)c1ccc(O)cc1
[1]
  inhibition at 50 µM: 92.7%

## CCc1cc2cc(OC)cc(C(=O)c3ccc(O)cc3)c2o1
[1]
  inhibition at 50 µM: 60%
[2]
  IC50: 33700 nM

## CCc1oc2ccccc2c1C(=O)c1ccc(O)cc1 [BENZARONE]
[1]
  inhibition at 50 µM: 90.8%

## CCc1cc2c(C(=O)c3cc(Br)c(O)c(Br)c3)cc(Br)c(O)c2o1
[1]
  inhibition at 50 µM: 99.9%
[2]
  IC50: 177 nM

## CCc1oc2c(O)cccc2c1C(=O)c1ccc(OC)cc1
[1]
  inhibition at 50 µM: 18.2%

## CCc1cc2cc(O)cc(C(=O)c3ccc(OC)cc3)c2o1
[1]
  inhibition at 50 µM: 9.3%

## CCc1cc2c(C(=O)c3ccc(OC)cc3)ccc(O)c2o1
[1]
  inhibition at 50 µM: 0.8%

## CCc1oc2cc(OC)ccc2c1C(=O)c1cc(Br)c(O)c(Br)c1
[1]
  inhibition at 50 µM: 99.9%

## CCc1oc2cc(Br)c(O)c(Br)c2c1C(=O)c1ccc(OC)cc1
[1]
  inhibition at 50 µM: 76.5%
[2]
  IC50: 23500 nM

## CCc1cc2cc(O)cc(C(=O)c3ccc(O)cc3)c2o1
[1]
  inhibition at 50 µM: 41%

## CCc1oc2ccc(OC)cc2c1C(=O)c1cc(Br)c(O)c(Br)c1
[1]
  inhibition at 50 µM: 99.9%

## CCCN(CCC)S(=O)(=O)c1ccc(C(=O)O)cc1 [PROBENECID]
[1]
  inhibition at 50 µM: 35.7%

## CCc1oc2ccc(OC)cc2c1C(=O)c1ccc(OC)cc1
[1]
  inhibition at 50 µM: 24.3%

## CCc1oc2cc(O)ccc2c1C(=O)c1ccc(OC)cc1
[1]
  inhibition at 50 µM: 48.3%

## CCc1oc2ccc(O)cc2c1C(=O)c1ccc(OC)cc1
[1]
  inhibition at 50 µM: 12.9%

## CCc1oc2ccccc2c1C(=O)c1cc(Br)c(O)c(Br)c1 [BENZBROMARONE]
[1]
  inhibition at 50 µM: 99.9%

## CCc1cc2c(C(=O)c3ccc(O)cc3)c(OC)ccc2o1
[1]
  inhibition at 50 µM: 88.2%
[2]
  IC50: 6680 nM

## CCc1cc2c(C(=O)c3ccc(O)cc3)cc(O)cc2o1
[1]
  inhibition at 50 µM: 41%

## CCc1oc2ccc(O)cc2c1C(=O)c1ccc(O)cc1
[1]
  inhibition at 50 µM: 96.5%
[2]
  IC50: 2490 nM

## CCc1cc2cc(O)cc(C(=O)c3cc(Br)c(O)c(Br)c3)c2o1
[1]
  inhibition at 50 µM: 99.8%

## CCc1oc2cc(O)ccc2c1C(=O)c1ccc(O)cc1
[1]
  inhibition at 50 µM: 92.1%
[2]
  IC50: 1130 nM

## CCc1cc2cc(OC)cc(C(=O)c3cc(Br)c(O)c(Br)c3)c2o1
[1]
  inhibition at 50 µM: 99%

## CCc1cc2c(C(=O)c3ccc(O)cc3)cc(OC)cc2o1
[1]
  inhibition at 50 µM: 62.4%
[2]
  IC50: 19700 nM

## CCc1cc2c(C(=O)c3ccc(OC)cc3)cc(O)cc2o1
[1]
  inhibition at 50 µM: 12.4%

## CCc1oc2c(OC)cccc2c1C(=O)c1ccc(OC)cc1
[1]
  inhibition at 50 µM: 17.2%

## CCc1cc2c(C(=O)c3ccc(OC)cc3)ccc(OC)c2o1
[1]
  inhibition at 50 µM: 7.4%

## CCc1cc2c(C(=O)c3cc(Br)c(O)c(Br)c3)c(O)ccc2o1
[1]
  inhibition at 50 µM: 99.9%
[2]
  IC50: 83 nM

## CCc1cc2c(C(=O)c3cc(Br)c(O)c(Br)c3)c(OC)ccc2o1
[1]
  inhibition at 50 µM: 99.6%
[2]
  IC50: 358 nM

## CCc1cc2c(C(=O)c3ccc(OC)cc3)c(OC)ccc2o1
[1]
  inhibition at 50 µM: 6.1%

## CCc1cc2c(C(=O)c3ccc(OC)cc3)c(O)ccc2o1
[1]
  inhibition at 50 µM: 28.7%

## CCc1cc2c(C(=O)c3ccc(OC)cc3)cc(Br)c(O)c2o1
[1]
  inhibition at 50 µM: 99.3%
[2]
  IC50: 772 nM

## CCc1oc2ccc(OC)cc2c1C(=O)c1ccc(O)cc1
[1]
  inhibition at 50 µM: 92.7%
[2]
  IC50: 2460 nM

## CCc1cc2c(C(=O)c3ccc(O)cc3)ccc(O)c2o1
[1]
  inhibition at 50 µM: 93.8%
[2]
  IC50: 3940 nM

## CCc1cc2c(C(=O)c3ccc(O)cc3)c(O)ccc2o1
[1]
  inhibition at 50 µM: 51.5%

## CCc1oc2cc(O)ccc2c1C(=O)c1cc(Br)c(O)c(Br)c1
[1]
  inhibition at 50 µM: 99.8%

## CCc1oc2ccc(O)cc2c1C(=O)c1cc(Br)c(O)c(Br)c1
[1]
  inhibition at 50 µM: 99.9%
[2]
  IC50: 189 nM

## CCc1cc2cc(OC)cc(C(=O)c3ccc(OC)cc3)c2o1
[1]
  inhibition at 50 µM: 5.2%

## CCc1oc2cc(OC)ccc2c1C(=O)c1ccc(OC)cc1
[1]
  inhibition at 50 µM: 6.2%
